In PubChem BioAssay (NCI):
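48-hour exposure; five concentrations; linearly interpolated endpoints. Abbreviation: GI50, concentration required for 50% inhibition of growth. Definition used: TGI = concentration required for complete inhibition of growth.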

Experiments:
Test in all cases: DTP human tumour cell line panel, 48 h
SK-MEL-5 melanoma = system: SK-MEL-5 melanoma
NCI-H460 lung = system: NCI-H460 lung
HCC-2998 colon = system: HCC-2998 colon
SN12C renal = system: SN12C renal
OVCAR-5 ovarian = system: OVCAR-5 ovarian
SK-MEL-2 melanoma = system: SK-MEL-2 melanoma
HCT-15 colon = system: HCT-15 colon
DU-145 prostate = system: DU-145 prostate
OVCAR-4 ovarian = system: OVCAR-4 ovarian
HL-60(TB) leukemia = system: HL-60(TB) leukemia

Compound `CCN1CCN(c2nc(NCCCNc3ccnc4cc(Cl)ccc34)c3ccccc3n2)CC1` has a GI50 (SK-MEL-5 melanoma) of 1.74 µM, a TGI (SK-MEL-5 melanoma) of 3.11 µM and a GI50 (NCI-H460 lung) of 2.14 µM. It also gave a TGI (NCI-H460 lung) of 5.1 µM, a GI50 (HCC-2998 colon) of 1.87 µM and a TGI (HCC-2998 colon) of 6.09 µM. For the same compound, the GI50 (SN12C renal) was 2.6 µM, the TGI (SN12C renal) was 11.5 µM and the GI50 (OVCAR-5 ovarian) was 3 µM. For the same compound, the TGI (OVCAR-5 ovarian) was 11 µM, the GI50 (SK-MEL-2 melanoma) was 2.14 µM and the TGI (SK-MEL-2 melanoma) was 4.88 µM. It also gave a GI50 (HCT-15 colon) of 2.6 µM, a TGI (HCT-15 colon) of 10.9 µM and a GI50 (DU-145 prostate) of 3.05 µM. For the same compound, the TGI (DU-145 prostate) was 13.2 µM, the GI50 (OVCAR-4 ovarian) was 2.12 µM and the TGI (OVCAR-4 ovarian) was 9.57 µM. It also gave a GI50 (HL-60(TB) leukemia) of 2.18 µM and a TGI (HL-60(TB) leukemia) of 4.25 µM.
